# Measured values from EPA's ToxValDB 9.5.
# “And” between values parts separate entries of the source, which are not always exact repeats. Identical values can stand only once.
# Tests used:
# Rattus norvegicus [1] = conditions: oral, M/F
# Mus musculus = conditions: short-term, duration: 28 days, oral, gavage, F, B6C3F1
# Rattus norvegicus [2] = conditions: subchronic, duration: 56 days, oral, diet, M, Sprague-Dawley
# Rattus norvegicus [3] = conditions: acute; oral; gavage
# Rattus norvegicus [4] = conditions: oral
# [5] = reproduction developmental, Increased incidence of hepatocellular changes including fatty change and vacuolation (M) increased susceptibility to stress factors (F)
# [6] = Liver: Liver Weight, Relative + Thymus: CD8+ Cell Count
# [7] = Spleen: Spleen Weight, Relative + Whole Body: Body Weight Change
# [8] = subchronic, gavage, M, Sprague-Dawley
# [9] = subchronic, duration: 90 days, diet, increased male spleen weight and che depression (females)
# [10] = chronic, duration: 91 days, gavage, M/F, Wistar, Blood Chemistry: Ca increase, TP increase, Glob increase, TG increase, Glu decrease + Absolute Organ Weight: Liver increase, Kidney increase…
# [11] = short-term, duration: 28 days, gavage, M, Sprague-Dawley, Clinical Observation: Salivation Orange urinelocomotor activity decreaserespiratory rate decrease, Incomplete eye opening Staining around …
structure (smiles),measurement,setting,value
CC(C)C(O)(c1ccc(OC(F)(F)F)cc1)c1cncnc1 (stereo not given) [Flurprimidol],LEL,Rattus norvegicus [1]; [5],7.3 mg/kg-day
same,NOEL,Rattus norvegicus [1]; [5],1.8 mg/kg-day
CCNS(=O)(=O)C(F)(F)C(F)(F)C(F)(F)C(F)(F)C(F)(F)C(F)(F)C(F)(F)C(F)(F)F [N-Ethylperfluorooctanesulfonamide],LEL,Mus musculus; [6],1 mg/kg-day
same,NEL,Mus musculus; [6],0.3 mg/kg-day
same,NEL,Mus musculus; Spleen: B Cell Proliferation + Spleen: B220+ Cell Count + Spleen: CD4-/CD8- Cell Count + Spleen: CD4+ Cell Count + Spleen: CD4+/CD8+ Cell …,10 mg/kg-day
same,LEL,"Mus musculus; Spleen: Plaque Forming Cell (PFC) Response + Uterus: Uterus Weight, Relative",0.3 mg/kg-day
same,LEL,Mus musculus; [7],10 mg/kg-day
same,NEL,Mus musculus; [7],3 mg/kg-day
same,LEL,Rattus norvegicus [2]; Whole Body: Body Weight Change,6.82 mg/kg-day and 5.7 mg/kg-day
same,NEL,Rattus norvegicus [2]; Whole Body: Clinical Observations,6.82 mg/kg-day and 5.7 mg/kg-day
"CCCCCCCCCCCCCCCCCC(=O)OCCOC(=O)CCCCCCCCCCCCCCCCC [Octadecanoic acid, 1,2-ethanediyl ester]",LD50,Rattus norvegicus [3],> 10000 mg/kg
same,NOAEL,Rattus norvegicus [4]; [8],1000 mg/kg-day
same,NOEL,Rattus norvegicus [4]; [8],1000 mg/kg-day
CC(C)OC(=O)Nc1ccccc1 [Propham],LEL,Rattus norvegicus [1]; [9],100 mg/kg-day
same,NOEL,Rattus norvegicus [1]; [9],50 mg/kg-day
c1ccc(P(c2ccccc2)c2ccccc2)cc1 [Triphenylphosphine],NOAEL,Rattus norvegicus [4]; [10],60 mg/kg-day
same,NOEL,Rattus norvegicus [4]; [10],6 mg/kg-day
O=[N+]([O-])C(Br)=Cc1ccccc1 [beta-Bromo-beta-nitrostyrene],NOEL,"Rattus norvegicus [4]; subchronic, gavage, M/F, Fischer 344, Deaths + Body Weight Changes: decrease>150 af>>300 + Hematology: RBC increase, WBC increase, Seg increase, Ret increase + Blood Chemistry: …",< 37 mg/kg-day
CC(=O)/C=C/C1=C(C)CCCC1(C)C [beta-Ionone],NOAEL,"Rattus norvegicus [4]; subchronic, duration: 90 days, diet, M/F, Wistar, Urinalysis: Ket increase, Uro increase, Transitional epithelial cell increase, Epithelial cell casts + Blood Chemistry: gamma-GTP increase, …",96 mg/kg-day
COc1ccc([N+](=O)[O-])cc1 [p-Nitroanisole],NOAEL,Rattus norvegicus [4]; [11],100 mg/kg-day
same,NOEL,Rattus norvegicus [4]; [11],< 100 mg/kg-day
"N#Cc1c(Cl)c(Cl)c(C#N)c(Cl)c1Cl [p-Phthalodinitrile, tetrachloro-]",NOEL,"Rattus norvegicus [4]; subchronic, gavage, Sprague-Dawley",1000 mg/kg-day
CC(C)(C)S [t-Butyl mercaptan],NOEL,"Rattus norvegicus [4]; subchronic, gavage, M, CD(SD), Clinical Observation: Salivation + Body Weight Changes: decrease + Food Consumption: decrease + Hematology: RBC decrease, HGB decrease, HCT …",< 10 mg/kg-day
same,NOEL,"Rattus norvegicus [4]; subchronic, gavage, M, Sprague-Dawley, Body Weight Changes: decrease200 + Hematology: MCHC decrease, APTT increase, RBC decrease, Hgb decrease, Hct decrease, Plt increase, PT …",< 10 mg/kg-day
ClC1=C(Cl)[C@]2(Cl)[C@H]3[C@H]([C@H](Cl)C(Cl)[C@@H]3Cl)[C@@]1(Cl)C2(Cl)Cl (stereo partly drawn) [trans-Nonachlor],NOEL,"Rattus norvegicus [4]; subchronic, diet, M/F, Sprague-Dawley, Blood Chemistry: Pi increase, A/G decrease, Thyroxine increasetake decrease, T4 increase + Absolute Organ Weight: Liver increase + Relative …",< 0.48 mg/kg-day
